Assay results reported in patent US5543401A (priority 1994, dated 1996).

Key:
[1] = tested on: tumor; assay: 5-FU and oral BAU in tumor-bearing CD8FI mice (Table 5); details: 5-FU 150 mg/kg/wk
[2] = tested on: tumor; assay: Toxicity of 5-FU and tumor weight in tumor-bearing CD8FI female mice (Table 2)
[3] = as above; details: mouse, in vivo, iv
[4] = tested on: breast tumors; assay: Toxicity of 5-FU 130 mg/kg/wk in CD8FI female mice with breast tumors (FIG. 1); format: in vivo, mouse
Procedure: (§1) FIG. 1 is a plot showing the toxicity of 5-fluorouracil. Toxicity in the plot is measured as a function of the percent of body weight change over time.
(§2) FIG. 1 establishes that 5-FU administered by i.v. in doses of 130 mg/kg/wk to mice is a toxic dose. Toxicity is determined by a change in body weight. Ten CD8FI female mice with breast tumors were treated with weekly doses of 5-fluorouracil in amounts of 130 mg/kg for three weeks. The percent of body weight change of the mice is shown and plotted over a period of approximately 12 days after administration of the last dose. The mice receiving 130 mg/kg of 5-FU suffered a weight loss of approximately 25% and a mortality of 30%.

[5] = as above; format: in vivo, mouse; details: mouse, in vivo, iv; 5-FU 130 mg/kg/wk i.v. × 3 weeks
Procedure: as §1, §2

[6] = Toxic dose of weekly 5-FU and severity of myelosuppression in patients (Table 1); format: in vivo, human; details: for Toxic dose: weekly i.v. 5-FU
Procedure: A representative schedule of clinical administration includes administering weekly i.v. injections of a bolus of 5-FU on an outpatient basis. A typical starting dose is about 500 mg/m^2. Every four weeks the 5-FU dose is increased by 20% until dose-limiting toxicity occurs, which can be indicated by weight loss, or destruction of bone marrow cells and the loss of white blood cells.

[7] = tested on: phosphorylase; details: in combination with uridine (Martin et al); cited from earlier work
[8] = BAU toxicity in animals; format: in vivo; details: animal data
Procedure: BAU may be administered orally at the rate of 0.5-2 g/m^2 every 4-6 hours for 3 days starting 1/2-2 hours after 5-FU administration, i.e., between 6 g/m^2 /wk and 36 g/m^2 /wk. Based on animal data BAU is non-toxic. Accordingly, it appears that the amounts of BAU which can be administered are not limited by toxic effects and, therefore, increased amounts of BAU may be administered.

[9] = tested on: thymidylate synthetase; details: Goodman & Gilman 5th Ed.; cited from earlier work
[10] = tested on: tumor; assay: 5-FU and oral uridine rescue in tumor-bearing CD8FI mice (Table 4); format: in vivo, mouse; details: 5-FU 150 mg/kg weekly
Procedure: (§3) Observations were recorded 6 days after the last injection.
(§4) A second trial was repeated by administering uridine 2 hours after the administration of 5-fluorouracil in a concentration of 780 mg/kg and then 2 1/2 hours later at a concentration of 1,040 mg/kg every 8 hr×5.

[11] = in vivo, cited from earlier work
[12] = tested on: tumor; assay: 5-FU and oral uridine rescue plus BAU in tumor-bearing CD8FI mice (Table 7); format: in vivo, mouse; details: 5-FU 150 mg/kg
Procedure: as §3, §4

[13] = 5-FU 100 mg/kg i.v. weekly × 3, 6 days after last injection
[14] = 5-FU 150 mg/kg i.v. weekly × 3, 6 days after last injection
[15] = patient 1, weekly 5-FU toxic dose 720 mg/m^2
[16] = patient 2, weekly 5-FU toxic dose 600 mg/m^2
[17] = patient 3, weekly 5-FU toxic dose 600 mg/m^2
[18] = patient 4, weekly 5-FU toxic dose 864 mg/m^2
[19] = patient 5, weekly 5-FU toxic dose 864 mg/m^2
[20] = patient 6, weekly 5-FU toxic dose 864 mg/m^2
[21] = patient 7, weekly 5-FU toxic dose 600 mg/m^2
[22] = patient 8 (first), weekly 5-FU toxic dose 720 mg/m^2
[23] = patient 8 (second), weekly 5-FU toxic dose 720 mg/m^2
[24] = then oral UR 600 mg/kg at 2 hrs, then 800 mg/kg q. 8 hr × 5
[25] = then oral UR 780 mg/kg at 2 hrs, then 1,040 mg/kg q. 8 hr × 5
[26] = oral UR 600 then 800 mg/kg q. 8 hr × 5, plus oral BAU 250 mg/kg
[27] = oral UR 780 then 1,040 mg/kg q. 8 hr × 5, plus oral BAU 250 mg/kg

**Q.** Which “lethality of 5-FU (in words)” value [1] does the source give for O=c1[nH]cc(F)c(=O)[nH]1 [5-FU, 5-fluorouracil] here?
**A.** lethal dose

**Q.** And the Mortality [2, 13]?
**A.** 0/10

**Q.** What about the “Tumor Weight” value [2, 13] of the same molecule?
**A.** 688 mgs

**Q.** What about the Mortality [2, 14] of the same molecule?
**A.** 8/10

**Q.** What about the “Tumor Weight” value [2, 14] of the same molecule?
**A.** 433 mgs

**Q.** And the MTD [3]?
**A.** 100 mg/kg

**Q.** And the Mortality ([3]; 150 mg/kg)?
**A.** 80%

**Q.** And the weight loss ([4]; 5-FU 130 mg/kg/wk i.v. × 3 weeks)?
**A.** approximately 25%

**Q.** And the Toxic dose ([4]; i.v., mice)?
**A.** 130 mg/kg/wk

**Q.** And the Mortality [5]?
**A.** 30%

**Q.** What about the “Nadir at toxicity, Platelets” value [6, 15] of the same molecule?
**A.** 1.51e+08 mL⁻¹

**Q.** What about the “Nadir at toxicity, wbc” value [6, 15] of the same molecule?
**A.** 1.6e+06 mL⁻¹

**Q.** What about the “Nadir at toxicity, Platelets” value [6, 16] of the same molecule?
**A.** 1.01e+08 mL⁻¹

**Q.** What about the “Nadir at toxicity, wbc” value [6, 16] of the same molecule?
**A.** 2.7e+06 mL⁻¹

**Q.** What about the “Nadir at toxicity, Platelets” value [6, 17] of the same molecule?
**A.** 7.6e+07 mL⁻¹

**Q.** What about the “Nadir at toxicity, wbc” value [6, 17] of the same molecule?
**A.** 1.4e+06 mL⁻¹

**Q.** And the “Nadir at toxicity, Platelets” value [6, 18]?
**A.** 1.1e+08 mL⁻¹

**Q.** And the “Nadir at toxicity, wbc” value [6, 18]?
**A.** 2.8e+06 mL⁻¹

**Q.** What about the “Nadir at toxicity, Platelets” value [6, 19] of the same molecule?
**A.** 2.05e+08 mL⁻¹

**Q.** And the “Nadir at toxicity, wbc” value [6, 19]?
**A.** 2e+06 mL⁻¹

**Q.** What about the “Nadir at toxicity, Platelets” value [6, 20] of the same molecule?
**A.** 8.4e+07 mL⁻¹

**Q.** And the “Nadir at toxicity, wbc” value [6, 20]?
**A.** 4.3e+06 mL⁻¹

**Q.** What about the “Nadir at toxicity, Platelets” value [6, 21] of the same molecule?
**A.** 8.2e+07 mL⁻¹

**Q.** What about the “Nadir at toxicity, wbc” value [6, 21] of the same molecule?
**A.** 6.7e+06 mL⁻¹

**Q.** What about the “Nadir at toxicity, Platelets” value [6, 22] of the same molecule?
**A.** 9.5e+07 mL⁻¹

**Q.** And the “Nadir at toxicity, wbc” value [6, 22]?
**A.** 4.1e+06 mL⁻¹

**Q.** And the “Nadir at toxicity, Platelets” value [6, 23]?
**A.** 7.4e+07 mL⁻¹

**Q.** And the “Nadir at toxicity, wbc” value [6, 23]?
**A.** 3.7e+06 mL⁻¹

**Q.** And the Toxic dose ([6]; patient 1, WHO 1, prior chemotherapy None)?
**A.** 720 mg/m^2

**Q.** And the Toxic dose ([6]; patient 2, WHO 1, prior chemotherapy None)?
**A.** 600 mg/m^2

**Q.** What about the Toxic dose ([6]; patient 3, WHO 0, prior HAI 5-FU) of the same molecule?
**A.** 600 mg/m^2

**Q.** What about the Toxic dose ([6]; patient 4, WHO 2, prior chemotherapy None) of the same molecule?
**A.** 864 mg/m^2

**Q.** What about the Toxic dose ([6]; patient 5, WHO 1, prior chemotherapy None) of the same molecule?
**A.** 864 mg/m^2

**Q.** And the Toxic dose ([6]; patient 6, WHO 1, prior HAI 5-FU)?
**A.** 864 mg/m^2

**Q.** What about the Toxic dose ([6]; patient 7, WHO 1, prior TGU) of the same molecule?
**A.** 600 mg/m^2

**Q.** And the Toxic dose ([6]; patient 8 (first), WHO 1, prior chemotherapy None)?
**A.** 720 mg/m^2

**Q.** What about the Toxic dose ([6]; patient 8 (second), WHO 0, prior FAC) of the same molecule?
**A.** 720 mg/m^2

**Q.** Which results are given for O=c1[nH]c(=O)n(COCCO)cc1Cc1ccccc1 [BAU, 5-benzylacyclouridine]?
**A.** effect on uridine breakdown and clearance [7]: prevents the breakdown of uridine by phosphorylase and the subsequent rapid body clearance of uridine; toxicity [8]: non-toxic

**Q.** Which “affinity for thymidylate synthetase” value [9] does the source give for O=c1[nH]c(=O)n([C@H]2C[C@H](O)[C@@H](COP(=O)(O)O)O2)cc1F [F-dUMP, 5-fluoro-2'-deoxyuridine-5'-phosphate] here?
**A.** unusually great affinity

**Q.** Which results are given for O=c1ccn([C@@H]2O[C@H](CO)[C@@H](O)[C@H]2O)c(=O)[nH]1 [uridine]?
**A.** Mortality [10, 24]: 4/10; Tumor Weight [10, 24]: 242 mgs; Mortality [10, 25]: 0/10; Tumor Weight [10, 25]: 361 mgs; side effects of intravenous uridine ([11]; iv): fever and phlebitis; side effects of oral uridine in large doses ([11]; po): irritates the gastrointestinal tract, which frequently causes severe diarrhea; catabolism of uridine [11]: quickly catabolized; plasma uridine levels after large doses of uridine [11]: millimolar or high micromolar uridine levels; Mortality [12, 26]: 0/10; Tumor Weight [12, 26]: 475 mgs; Mortality [12, 27]: 1/10; Tumor Weight [12, 27]: 434 mgs
